Reference: ChEMBL document CHEMBL1138067, “A new synthesis of sulfonamides by aminolysis of p-nitrophenylsulfonates yielding potent and selective adenosine A2B receptor antagonists” (J Med Chem, 2006)

How the values were obtained:
[1] = target: T1, Adenosine receptor A1 (Rattus norvegicus, UniProt P25099); assay: Displacement of [3H]CCPA from adenosine A1 receptor in rat brain cortical membranes; format: cell membranes, Membrane
T1 sequence (P25099 whole entry): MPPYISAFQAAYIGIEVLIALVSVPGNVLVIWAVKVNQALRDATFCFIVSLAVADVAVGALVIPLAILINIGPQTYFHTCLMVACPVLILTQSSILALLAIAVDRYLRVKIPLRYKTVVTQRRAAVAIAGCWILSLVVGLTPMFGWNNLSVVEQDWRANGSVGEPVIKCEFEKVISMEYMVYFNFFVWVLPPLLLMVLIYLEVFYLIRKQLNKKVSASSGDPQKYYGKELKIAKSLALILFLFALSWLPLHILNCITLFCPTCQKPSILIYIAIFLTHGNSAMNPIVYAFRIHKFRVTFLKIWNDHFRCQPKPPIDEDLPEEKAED

[2] = target: T2, Adenosine receptor A3 (Homo sapiens) (UniProt P0DMS8); assay: Inhibition of [3H]PSB11 binding to human recombinant adenosine A3 receptor in CHO cells at >=1 uM; format: cell-based
T2 sequence (whole entry): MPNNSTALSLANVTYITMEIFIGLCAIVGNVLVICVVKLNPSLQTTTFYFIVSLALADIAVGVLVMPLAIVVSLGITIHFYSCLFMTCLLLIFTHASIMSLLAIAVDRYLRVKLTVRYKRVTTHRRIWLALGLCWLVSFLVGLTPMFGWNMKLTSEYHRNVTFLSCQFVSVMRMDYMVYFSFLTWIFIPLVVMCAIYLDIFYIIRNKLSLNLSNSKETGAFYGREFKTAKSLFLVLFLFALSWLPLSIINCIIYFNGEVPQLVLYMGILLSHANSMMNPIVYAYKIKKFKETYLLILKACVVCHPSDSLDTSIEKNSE

[3] = target: T3, Adenosine receptor A1 (Homo sapiens, UniProt P30542); assay: Displacement of [3H]CCPA from human recombinant adenosine A1 receptor expressed in CHO cells; format: cell-based
T3 sequence (P30542 whole entry): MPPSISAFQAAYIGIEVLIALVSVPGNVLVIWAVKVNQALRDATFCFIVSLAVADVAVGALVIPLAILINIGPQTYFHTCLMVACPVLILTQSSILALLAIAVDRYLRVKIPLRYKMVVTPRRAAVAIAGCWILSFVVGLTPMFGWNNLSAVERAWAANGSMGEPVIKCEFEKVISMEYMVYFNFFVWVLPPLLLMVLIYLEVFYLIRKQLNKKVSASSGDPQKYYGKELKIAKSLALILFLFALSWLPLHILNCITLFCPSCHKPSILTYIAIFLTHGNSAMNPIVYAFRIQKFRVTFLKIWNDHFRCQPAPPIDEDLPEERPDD

[4] = target: Adenosine receptors; A2b & A3 (Homo sapiens) (UniProt P29275+P0DMS8); assay: Selectivity for human adenosine A2B receptor over adenosine A3 receptor; format: protein assay
[5] = target: T4, Adenosine receptor A2b (Homo sapiens, UniProt P29275); assay: Displacement of [3H]PSB298 from human recombinant adenosine A2B receptor expressed in CHO cells; format: cell-based
T4 sequence (P29275 whole entry): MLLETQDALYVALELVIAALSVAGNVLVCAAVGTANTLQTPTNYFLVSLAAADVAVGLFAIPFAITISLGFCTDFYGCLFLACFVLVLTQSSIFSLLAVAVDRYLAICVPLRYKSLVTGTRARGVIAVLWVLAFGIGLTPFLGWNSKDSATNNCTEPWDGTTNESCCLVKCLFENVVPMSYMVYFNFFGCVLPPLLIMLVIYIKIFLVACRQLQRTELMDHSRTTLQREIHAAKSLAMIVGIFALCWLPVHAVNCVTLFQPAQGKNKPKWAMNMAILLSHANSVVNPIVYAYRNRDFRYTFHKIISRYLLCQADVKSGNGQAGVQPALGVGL

[6] = target: T5, Adenosine receptor A3 (Homo sapiens, UniProt P0DMS8); assay: Displacement of [3H]PSB11 from human recombinant adenosine A3 receptor expressed in CHO cells; format: cell-based
T5 sequence (P0DMS8 whole entry): T2 sequence (whole entry)

[7] = target: Adenosine receptors; A1 & A2b (Homo sapiens) (UniProt P30542+P29275); assay: Selectivity for human adenosine A2B receptor over adenosine A1 receptor; format: protein assay
[8] = target: Adenosine receptor A2a (Rattus norvegicus, UniProt P30543); assay: Displacement of [3H]MSX2 from adenosine A2A receptor in rat brain striatal membranes; format: cell membranes, Membrane
[9] = target: Adenosine receptor A2a (Homo sapiens, UniProt P29274); assay: Displacement of [3H]MSX2 from human recombinant adenosine A2A receptor expressed in CHO cells; format: cell-based
[10] = target: T2, Adenosine receptor A3 (Homo sapiens); assay: (§1) Inhibition of [3H]PSB11 binding to human recombinant adenosine A3 receptor in CHO cells at >=10 uM; format: cell-based
[11] = target: T2, Adenosine receptor A3 (Homo sapiens); assay: Inhibition of [3H]PSB11 binding to human recombinant adenosine A3 receptor in CHO cells at >10 uM; format: cell-based
[12] = target: T5, Adenosine receptor A3; assay: as §1; format: cell-based
[13] = target: T2, Adenosine receptor A3 (Homo sapiens); assay: Inhibition of [3H]PSB11 binding to human recombinant adenosine A3 receptor in CHO cells at >1 uM; format: cell-based
[14] = target: T5, Adenosine receptor A3; assay: Displacement of [125I]AB-MECA from human recombinant adenosine A3 receptor expressed in CHO cells; format: cell-based

Sequence of Adenosine receptor A2a (Homo sapiens, UniProt P29274) (P29274 whole entry): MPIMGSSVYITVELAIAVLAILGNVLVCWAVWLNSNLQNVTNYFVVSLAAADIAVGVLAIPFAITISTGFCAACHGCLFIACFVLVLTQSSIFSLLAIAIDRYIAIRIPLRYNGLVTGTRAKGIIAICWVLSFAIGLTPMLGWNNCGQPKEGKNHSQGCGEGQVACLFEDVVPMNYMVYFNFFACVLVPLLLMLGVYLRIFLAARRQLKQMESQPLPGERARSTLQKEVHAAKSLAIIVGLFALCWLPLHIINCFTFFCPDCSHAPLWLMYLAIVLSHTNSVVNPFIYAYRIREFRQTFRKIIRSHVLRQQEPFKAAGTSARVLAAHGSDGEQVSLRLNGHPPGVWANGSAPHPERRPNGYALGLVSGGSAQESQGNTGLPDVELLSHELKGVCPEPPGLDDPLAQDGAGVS
Sequence of Adenosine receptor A2a (Rattus norvegicus, UniProt P30543) (P30543 whole entry): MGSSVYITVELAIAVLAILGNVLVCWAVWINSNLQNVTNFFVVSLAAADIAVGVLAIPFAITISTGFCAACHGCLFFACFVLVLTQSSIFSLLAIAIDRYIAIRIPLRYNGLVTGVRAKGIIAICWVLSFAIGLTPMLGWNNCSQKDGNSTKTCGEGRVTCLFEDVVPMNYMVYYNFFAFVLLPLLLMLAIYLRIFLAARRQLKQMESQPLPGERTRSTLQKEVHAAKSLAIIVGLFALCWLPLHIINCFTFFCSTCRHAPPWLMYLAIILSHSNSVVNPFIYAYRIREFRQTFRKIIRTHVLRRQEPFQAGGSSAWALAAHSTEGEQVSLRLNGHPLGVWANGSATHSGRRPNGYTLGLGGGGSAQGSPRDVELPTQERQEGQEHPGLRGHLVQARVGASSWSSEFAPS

Ki [1] [nM] | Ki [5] [nM] | Ki [6] [µM] | Ki [8] [nM] | SMILES | other results
10 | 3.62 | ≥ 10 | 297 | CCCn1c(=O)[nH]c2[nH]c(-c3ccc(S(=O)(=O)NCCc4ccccc4)cc3)nc2c1=O | inhibition [10]: 37%; Ki [3]: 183 nM; Selectivity ratio [4]: > 2700; Selectivity ratio [7]: 50; Ki [9]: 769 nM
12 | 4.48 | 1.08 | 113 | Cn1c(=O)c2[nH]c(-c3ccc(S(=O)(=O)NCCc4ccccc4)cc3)nc2n(C)c1=O | Ki [3]: 185 nM; Ki [9]: 32.6 nM
260 | 3.6 | > 1 | 93.7 | CCCn1c(=O)[nH]c2nc(-c3ccc(S(=O)(=O)N4CCN(Cc5ccccc5)CC4)cc3)[nH]c2c1=O | Ki [3]: 2070 nM; inhibition [13]: 29%; Selectivity ratio [4]: > 278; Selectivity ratio [7]: 574; Ki [9]: 484 nM
5.5 | 53.8 | > 1 | 42 | CCCN(CCC)S(=O)(=O)c1ccc(-c2nc3[nH]c(=O)n(CCC)c(=O)c3[nH]2)cc1 | 
1.8 | 31.4 | ≥ 1 | 23 | CCCn1c(=O)[nH]c2[nH]c(-c3ccc(S(=O)(=O)Nc4ccccc4)cc3)nc2c1=O | inhibition [2]: 48%
100 | 101 | > 10 | 320 | CCCn1c(=O)[nH]c2nc(-c3ccc(S(=O)(=O)NCC(=O)O)cc3)[nH]c2c1=O | 
45 | 27.1 | ≥ 10 | 287 | CCCn1c(=O)[nH]c2[nH]c(-c3ccc(S(=O)(=O)NCCO)cc3)nc2c1=O | inhibition [10]: 36%
 |  | > 10 |  | CCCn1c(=O)[nH]c2nc(-c3ccc(S(=O)(=O)O)cc3)[nH]c2c1=O | Ki [3]: > 10000 nM

The next lines start with the compound.

SMILES | Ki [1] [nM] | Ki [5] [nM] | Ki [6] [µM] | Ki [8] [nM] | other results
CCCn1c(=O)[nH]c2[nH]c(-c3ccc(S(=O)(=O)NCc4ccccc4)cc3)nc2c1=O | 4.6 | 4.2 | ≥ 1 | 26.7 | inhibition [2]: 41%; Ki [3]: 54.8 nM; Selectivity ratio [4]: > 200; Selectivity ratio [7]: 13; Ki [9]: 162 nM
CCCn1c(=O)[nH]c2[nH]c(-c3ccc(S(=O)(=O)NCC(=O)O)cc3)nc2c1=O |  |  |  |  | inhibition [11]: 25%
Cn1c(=O)c2nc(-c3ccc(S(=O)(=O)NCCO)cc3)[nH]c2n(C)c1=O |  |  |  |  | inhibition [10]: 49%
Cn1c(=O)c2nc(-c3ccc(S(=O)(=O)NCC(=O)O)cc3)[nH]c2n(C)c1=O | 64 | 154 | ≥ 10 | 182 | inhibition [12]: 41%
CCCCNS(=O)(=O)c1ccc(-c2nc3c([nH]2)c(=O)n(C)c(=O)n3C)cc1 | 27 | 122 | ≥ 10 | 165 | 
CCCCNS(=O)(=O)c1ccc(-c2nc3c(=O)n(C)c(=O)n(C)c3[nH]2)cc1 |  |  |  |  | inhibition [10]: 43%
CCCN(CCC)S(=O)(=O)c1ccc(-c2nc3c(=O)n(CCC)c(=O)[nH]c3[nH]2)cc1 |  |  |  |  | inhibition [13]: 18%
Cn1c(=O)c2[nH]c(-c3ccc(S(=O)(=O)NCCO)cc3)nc2n(C)c1=O | 98 | 250 | ≥ 10 | 347 | 
CC(C)NS(=O)(=O)c1ccc(-c2nc3c([nH]2)c(=O)n(C)c(=O)n3C)cc1 | 75 | 102 | > 10 | 283 | 
CC(C)NS(=O)(=O)c1ccc(-c2nc3c(=O)n(C)c(=O)n(C)c3[nH]2)cc1 |  |  |  |  | inhibition [11]: 27%
Cn1c(=O)c2[nH]c(-c3ccc(S(=O)(=O)O)cc3)nc2n(C)c1=O |  |  |  |  | Ki [14]: 5.89 µM
